Assays:
Assay type in all cases: in vivo
kochia (Bassia scoparia) [1] = test: Test A preemergence soil spray, visual injury rating 0-100; settings: 10 days, 0 = no effect, 100 = complete control
Excerpt: (§1) Seeds of plant species selected from barnyardgrass (Echinochloa crus-galli), blackgrass (Alopecurus myosuroides), corn (Zea mays), foxtail, giant (giant foxtail, Setaria faberi), green foxtail (Setaria viridis), goosegrass (Eleusine indica), kochia (Bassia scoparia), oat, wild (wild oat, Avena fatua), palmer (palmer amaranth, palmer pigweed, Amaranthus palmeri), ragweed (common ragweed, Ambrosia artemisiifolia), ryegrass, Italian (italian ryegrass, Lolium multiflorum), soybean (Glycine max) and wheat (Triticum aestivum) were planted into a blend of loam soil and sand and treated preemergence with a directed soil spray using test chemicals formulated in a non-phytotoxic solvent mixture which included a surfactant.
(§2) At the same time, plants selected from these crops and weed species and also galium (catchweed bedstraw, Galium aparine) and horseweed (Erigeron canadensis) were planted in pots containing the same blend of loam soil and sand and treated with postemergence applications of test chemicals formulated in the same manner. Plants ranged in height from 2 to 10 cm and were in the one- to two-leaf stage for the postemergence treatment. Treated plants and untreated controls were maintained in a greenhouse for 10 days, after which time all treated plants were compared to untreated controls and visually evaluated for injury. Plant response ratings, summarized in Table A, are based on a 0 to 100 scale where 0 is no effect and 100 is complete control. A dash (-) response means no test result.

[2] = system: barnyardgrass (Echinochloa crus-galli); test: as above; settings: 10 days, 0 = no effect, 100 = complete control
Excerpt: as §1, §2

[3] = system: ryegrass, Italian (italian ryegrass, Lolium multiflorum); test: as above; settings: 10 days, 0 = no effect, 100 = complete control
Excerpt: as §1, §2

[4] = system: oat, wild (wild oat, Avena fatua); test: as above; settings: 10 days, 0 = no effect, 100 = complete control
Excerpt: as §1, §2

[5] = system: blackgrass (Alopecurus myosuroides); test: as above; settings: 10 days, 0 = no effect, 100 = complete control
Excerpt: as §1, §2

[6] = system: wheat (Triticum aestivum); test: as above; settings: 10 days, 0 = no effect, 100 = complete control
Excerpt: as §1, §2

[7] = system: green foxtail (Setaria viridis); test: as above; settings: 10 days, 0 = no effect, 100 = complete control
Excerpt: as §1, §2

[8] = system: ragweed (common ragweed, Ambrosia artemisiifolia); test: as above; settings: 10 days, 0 = no effect, 100 = complete control
Excerpt: as §1, §2

soybean (Glycine max) [9] = test: as above; settings: 10 days, 0 = no effect, 100 = complete control
Excerpt: as §1, §2

[10] = system: palmer (palmer amaranth, palmer pigweed, Amaranthus palmeri); test: as above; settings: 10 days, 0 = no effect, 100 = complete control
Excerpt: as §1, §2

corn (Zea mays) [11] = test: as above; settings: 10 days, 0 = no effect, 100 = complete control
Excerpt: as §1, §2

kochia (Bassia scoparia) [12] = test: Test A postemergence application, visual injury rating 0-100; settings: 10 days
Excerpt: as §1, §2

[13] = system: barnyardgrass (Echinochloa crus-galli); test: as above; settings: 10 days
Excerpt: as §1, §2

[14] = system: ryegrass, Italian (italian ryegrass, Lolium multiflorum); test: as above; settings: 10 days
Excerpt: as §1, §2

[15] = system: oat, wild (wild oat, Avena fatua); test: as above; settings: 10 days
Excerpt: as §1, §2

[16] = system: blackgrass (Alopecurus myosuroides); test: as above; settings: 10 days
Excerpt: as §1, §2

[17] = system: horseweed (Erigeron canadensis); test: as above; settings: 10 days
Excerpt: as §1, §2

[18] = system: wheat (Triticum aestivum); test: as above; settings: 10 days
Excerpt: as §1, §2

[19] = system: green foxtail (Setaria viridis); test: as above; settings: 10 days
Excerpt: as §1, §2

[20] = system: ragweed (common ragweed, Ambrosia artemisiifolia); test: as above; settings: 10 days
Excerpt: as §1, §2

soybean (Glycine max) [21] = test: as above; settings: 10 days
Excerpt: as §1, §2

[22] = system: palmer (palmer amaranth, palmer pigweed, Amaranthus palmeri); test: as above; settings: 10 days
Excerpt: as §1, §2

corn (Zea mays) [23] = test: as above; settings: 10 days
Excerpt: as §1, §2

[24] = system: ducksalad (Heteranthera limosa); test: Test B flooded paddy test, visual plant response rating 0-100; settings: 250 g ai/ha, Flood, applied to paddy water, evaluated after 13 days
Experimental: (§3) Plant species in the flooded paddy test selected from barnyardgrass (Echinochloa crusgalli), ducksalad (Heteranthera limosa), rice (Oryza sativa), and sedge, umbrella (small-flower umbrella sedge, Cyperus difformis) were grown to the 2-leaf stage for testing. At time of treatment, test pots were flooded to 3 cm above the soil surface, treated by application of test compounds directly to the paddy water, and then maintained at that water depth for the duration of the test. Treated plants and controls were maintained in a greenhouse for 13 days, after which time all species were compared to controls and visually evaluated. […] A dash (-) response means no test result.

[25] = system: barnyardgrass (Echinochloa crusgalli); test: as above; settings: 250 g ai/ha, Flood, applied to paddy water, evaluated after 13 days
Experimental: as §3

rice (Oryza sativa) = test: as above; settings: 250 g ai/ha, Flood, applied to paddy water, evaluated after 13 days
Experimental: as §3

[26] = system: sedge, umbrella (small-flower umbrella sedge, Cyperus difformis); test: as above; settings: 250 g ai/ha, Flood, applied to paddy water, evaluated after 13 days
Experimental: as §3

[27] = 31 g ai/ha, postemergence, 0 = no effect, 100 = complete control
[28] = Postemergence, 125 g ai/ha, 0 is no effect, 100 is complete control

CC(C)OC(=O)C1CCC(NC(=O)C2(C)CN(c3cc(F)cc(F)c3)C(=O)O2)C1 (centres unmarked) [Compound 12]
Kochia plant response rating (0-100) (kochia (Bassia scoparia) [1]; 31 g ai/ha): 20
Kochia plant response rating (0 to 100 scale) (kochia (Bassia scoparia) [1]; 125 g ai/ha): 70
Barnyardgrass plant response rating (0-100) ([2]; 31 g ai/ha): 0
Barnyardgrass plant response rating (0 to 100 scale) ([2]; 125 g ai/ha): 90
Ryegrass, Italian plant response rating (0-100) ([3]; 31 g ai/ha): 0
Ryegrass, Italian plant response rating (0 to 100 scale) ([3]; 125 g ai/ha): 90
Oat, Wild plant response rating (0-100) ([4]; 31 g ai/ha): 0
Oat, Wild plant response rating (0 to 100 scale) ([4]; 125 g ai/ha): 90
Blackgrass plant response rating (0-100) ([5]; 31 g ai/ha): 20
Blackgrass plant response rating (0 to 100 scale) ([5]; 125 g ai/ha): 80
Wheat plant response rating (0-100) ([6]; 31 g ai/ha): 50
Wheat plant response rating (0 to 100 scale) ([6]; 125 g ai/ha): 90
Foxtail, Green plant response rating (0-100) ([7]; 31 g ai/ha): 0
Foxtail, Green plant response rating (0 to 100 scale) ([7]; 125 g ai/ha): 50
Ragweed plant response rating (0-100) ([8]; 31 g ai/ha): 0
Ragweed plant response rating (0 to 100 scale) ([8]; 125 g ai/ha): 0
Soybean plant response rating (0-100) (soybean (Glycine max) [9]; 31 g ai/ha): 10
Soybean plant response rating (0 to 100 scale) (soybean (Glycine max) [9]; 125 g ai/ha): 0
Amaranth, Palmer plant response rating (0-100) ([10]; 31 g ai/ha): 0
Amaranth, Palmer plant response rating (0 to 100 scale) ([10]; 125 g ai/ha): 0
Corn plant response rating (0-100) (corn (Zea mays) [11]; 31 g ai/ha): 0
Corn plant response rating (0 to 100 scale) (corn (Zea mays) [11]; 125 g ai/ha): 50
Kochia plant response rating (0-100) (kochia (Bassia scoparia) [12]; [27]): 20
Kochia plant response rating (0 to 100 scale) (kochia (Bassia scoparia) [12]; [28]): 80
Barnyardgrass plant response rating (0-100) [13, 27]: 10
Barnyardgrass plant response rating (0 to 100 scale) [13, 28]: 100
Ryegrass, Italian plant response rating (0-100) [14, 27]: 60
Ryegrass, Italian plant response rating (0 to 100 scale) [14, 28]: 80
Oat, Wild plant response rating (0-100) [15, 27]: 80
Oat, Wild plant response rating (0 to 100 scale) [15, 28]: 90
Blackgrass plant response rating (0-100) [16, 27]: 50
Blackgrass plant response rating (0 to 100 scale) [16, 28]: 80
Horseweed plant response rating (0-100) [17, 27]: 0
Horseweed plant response rating (0 to 100 scale) [17, 28]: 10
Wheat plant response rating (0-100) [18, 27]: 50
Wheat plant response rating (0 to 100 scale) [18, 28]: 60
Foxtail, Green plant response rating (0-100) [19, 27]: 20
Foxtail, Green plant response rating (0 to 100 scale) [19, 28]: 60
Ragweed plant response rating (0-100) [20, 27]: 0
Ragweed plant response rating (0 to 100 scale) [20, 28]: 0
Soybean plant response rating (0-100) (soybean (Glycine max) [21]; [27]): 30
Soybean plant response rating (0 to 100 scale) (soybean (Glycine max) [21]; [28]): 50
Amaranth, Palmer plant response rating (0-100) [22, 27]: 0
Amaranth, Palmer / Pigweed, Palmer plant response rating (0 to 100 scale) [22, 28]: 20
Corn plant response rating (0-100) (corn (Zea mays) [23]; [27]): 20
Corn plant response rating (0 to 100 scale) (corn (Zea mays) [23]; [28]): 50
Plant response rating, Ducksalad (0 to 100 scale, 0 is no effect and 100 is complete control) [24]: 0
Plant response rating, Barnyardgrass (0 to 100 scale, 0 is no effect and 100 is complete control) [25]: 0
Plant response rating, Rice (0 to 100 scale, 0 is no effect and 100 is complete control) (rice (Oryza sativa)): 0
Plant response rating, Sedge, Umbrella (0 to 100 scale, 0 is no effect and 100 is complete control) [26]: 0

Reference: patent publication US20260285850A1, “SUBSTITUTED OXAZOLIDINONES AND IMIDAZOLINONES AS HERBICIDES” (FMC CORPORATION, priority 2023, published 2026)
